Results as given in patent US20230041211A1, “DECREASING TOXICITY OF TERPENES AND INCREASING THE PRODUCTION POTENTIAL IN MICRO-ORGANISMS” (BASF SE, priority 2019, published 2023).
In brackets after ≈: the same amount, converted by molar mass. Where two headings read alike, the source gives them in different places.

Experiments:
[1] = cited from earlier work; for loqP: Table 3B
[2] = system: Escherichia coli, Saccharomyces cerevisae, Pseudomonas putida and Rhodobacter sphaeroides; experiment: Toxicity of terpenes on unmodified organisms; conditions: all four organisms
[3] = cited from earlier work
[4] = system: adapted E. coli strains (Isolate A to C, Mut T6 A); format: cell-based, Escherichia coli; conditions: Isobutanol 65 mM, Prenol 40 mM, Butanol 7.5 g/L, Vanillin 1 g/L; Geraniol concentration not given
Experimental: To investigate the mode of action of the tolerance trait, chemicals with similar properties were tested.
To assess the limitations of the tolerance mechanism, tolerance against three additional chemicals was tested.
(§1) On the next day 25 mL of medium in 250 mL baffled flasks with Teflon® liner screw cabs were inoculated to an OD of 0.2 and incubated at 200 rpm. The terpenoid stress was added to the specified concentration. Before the cell-culture reached stationary phase, part of the culture was transferred to fresh medium in a fresh flask with the terpenoid. The mean culture growth rate was determined by comparing the initial OD and the culture OD before passaging.
(§2) Growth rates were determined by transforming the OD-values of each experiment with the natural logarithm. In the linear regime of growth a line was fit to the data and the slope was determined, which is equal to the growth rate. Growth rates were determined for each flask individually and the growth rate of each condition is given as the mean and standard deviation of three biological replicates.

E. coli MG1655 wild-type [5] = experiment: Toxicity assay: growth rate of wild-type E. coli in M9 medium with the chemical in sealed baffled flasks; format: cell-based, Escherichia coli
Experimental: The tolerance against Isoprenol was confirmed with the established toxicity assay of growth in M9 medium with Isoprenol in baffled sealed 250 mL flasks. To investigate the mode of action of the tolerance trait, chemicals with similar properties were tested.
as §1, §2
A linear interpolation of the two data-points adjacent to the half-maximal growth rate (MIC50) was used to estimate the compound concentration of half-maximal growth rate. If the corresponding standard-deviations of the growth rates were available the standard error of the MIC50 was computed by error propagation.

[6] = system: engineered E. coli strains (ΔyghB, ΔmarC, Δrob, rob H48fs); format: cell-based, Escherichia coli
Description: We began the investigation of the mutations discovered in the final phenotype by testing the knock-out strains of the most promising gene-targets from the readily available Keio collection. The Keio collection is implemented in the BW25113 background which we subsequently used as reference for tolerance testing when using strains derived from the Keio collection. Compared to MG1655 the BW25113 strain is auxotroph for arabinose and rhamnose. Since glucose is the sole carbon source in our growth-assays this should not impact the physiology of tolerance.
Knock-out strains were constructed by amplification of resistance cassette with 25 bp overlap from corresponding Keio strains (Primers 3+4, 5+6 and 7+8). The PCR products carrying a homologous 25 bp sequence and a kanamycin resistance were used to transform E. coli MG1655 using standard procedures (Baba et al., 2006). For over-expression plasmids target genes were amplified with a 25 bp homology to the pAH030 overexpression plasmid. The Plasmid was linearized using the Spel restriction site and the PCR-product containing the gene of interested was inserted using Gibson assembly (Gibson et al., 2009).
Knock out strains were prepared using DNA-fragments isolated from the corresponding Keio collection strains. Recombination was carried out using a standard RED/ET kit (Genebridges Red/ET Kit, 2019).
as §2

[7] = system: Escherichia coli, Saccharomyces cerevisae, Pseudomonas putida and Rhodobacter sphaeroides
E. coli MG1655 wild-type [8] = conditions: cited from earlier work

**Q.** Which loqP [1] does the source give for `C=C(C)C1CC=C(C)C(=O)C1` (single isomer, unassigned; (-)) [(-)-Carvone] here?
**A.** 2.71

**Q.** Which loqP [1] does the source give for `CC(=O)CCc1ccc(O)cc1` [4-(4-Hydroxyphenyl)-2-butanone] here?
**A.** 1.5

**Q.** Which results are given for `CC(C)=CCCC(C)=CC=O` [Citral]?
**A.** loqP [1]: 2.9; toxicity on unmodified organisms [2]: toxic effects

**Q.** For `CCOC(=O)CC` [Ethyl Propionate], which loqP [1] is on record?
**A.** 1.21

**Q.** Which loqP [1] does the source give for `CCCC(=O)OCC` [Ethyl butanoate] here?
**A.** 1.77

**Q.** What does the source list for `CC(C)=CCCC(C)=CCCC(C)=CCO` [Farnesol]?
**A.** Solubility ([3]; solubility in water, Table 3B): 0.05 g/L (≈ 0.225 mM); loqP [1]: 4.16

**Q.** With `CC(C)=CCC/C(C)=C/CO` [Geraniol] as the compound, how does the “Solubility” value ([3]; solubility in water, Table 3B) read?
**A.** 0.68 g/L (≈ 4.41 mM)

**Q.** What about the “tolerance of adapted strains compared to wild-type” value [4] of the same compound?
**A.** highly elevated susceptibility

**Q.** What about the “toxicity on unmodified organisms” value [2] of the same compound?
**A.** toxic effects

**Q.** For `CC(C)CO` [Isobutanol], which EC50 (E. coli MG1655 wild-type [5]; Escherichia coli, MG1655, wild-type strain, read-out: concentration where growth is 50% inhibited (EC50), half maximal inhibitory concentration) is on record?
**A.** 65 mM

**Q.** And the loqP [1]?
**A.** 0.8

**Q.** And the “tolerance of adapted strains compared to wild-type” value [4]?
**A.** All strains exhibit an increased tolerance

**Q.** With `C=C(C)CCO` [Isoprenol, 3-methyl-3-buten-1-ol] as the compound, how does the Solubility ([3]; Table A) read?
**A.** 90 g/L (≈ 1040 mM)

**Q.** What about the “Solubility” value ([3]; solubility in water, Table 3B) of the same compound?
**A.** 90 g/L (≈ 1040 mM)

**Q.** What about the “growth of wild-type E. coli cells” value (E. coli MG1655 wild-type [5]; 60 to 80 mM Isoprenol concentration regime) of the same compound?
**A.** not able to grow

**Q.** And the loqP [1]?
**A.** 0.89

**Q.** What about the logP ([1]; Table A) of the same compound?
**A.** 0.89

**Q.** And the decrease of fitness ([6]; ΔyghB strain of the Keio collection (BW25113), Isoprenol stress)?
**A.** about 30%

**Q.** What about the “toxicity on unmodified organisms” value [2] of the same compound?
**A.** toxic effects

**Q.** Which loqP [1] does the source give for `C=C(C)[C@H]1CC=C(C)CC1` [Limonene] here?
**A.** 4.571

**Q.** With `C=CC(C)(O)CCC=C(C)C` (centres unmarked) [Linalool] as the compound, how does the “Solubility” value ([3]; solubility in water, Table 3B) read?
**A.** 1.5 g/L (≈ 9.72 mM)

**Q.** For `CC1CCC(C(C)C)C(O)C1` (centres unmarked) [Menthol], which “toxicity on unmodified organisms” value [7] is on record?
**A.** toxic effects

**Q.** And the loqP [1]?
**A.** 3.2

**Q.** For `CC(C)=CCO` [Prenol], which EC50 (E. coli MG1655 wild-type [5]; wild-type strain, read-out: concentration where growth is 50% inhibited (EC50), half maximal inhibitory concentration) is on record?
**A.** 40 mM

**Q.** And the loqP [1]?
**A.** 0.91

**Q.** And the “tolerance of adapted strains compared to wild-type” value [4]?
**A.** only strain isolate A exhibited an increased tolerance

**Q.** With `COc1cc(C(=O)O)ccc1O` [Vanillic Acid] as the compound, how does the loqP [1] read?
**A.** 1.43

**Q.** With `COc1cc(C=O)ccc1O` [Vanillin] as the compound, how does the “Solubility” value ([3]; solubility in water, Table 3B) read?
**A.** 10 g/L (≈ 65.7 mM)

**Q.** And the Wild-type growth rate (E. coli MG1655 wild-type [5]; 1.5 g/L Vanillin (FIG. 10B))?
**A.** 0.23 h⁻¹

**Q.** And the EC50 (E. coli MG1655 wild-type [5]; Escherichia coli, MG1655, wild-type E. coli, own experimental set-up, read-out: experimental EC50 / half-maximal growth repression)?
**A.** 1000 to 1500 µg/mL

**Q.** And the “growth rate reduced to fraction of wild-type growth rate (no complete growth inhibition)” value (E. coli MG1655 wild-type [5]; wild-type E. coli MG1655, concentration regime tested (FIG. 10A))?
**A.** ⅓

**Q.** What about the “tolerance of adapted strains compared to wild-type” value [4] of the same compound?
**A.** significantly increased growth rate

**Q.** And the “effect of marC knock-out under Vanillin stress” value ([6]; ΔmarC, 1.5 g/L Vanillin)?
**A.** no significant positive effect

**Q.** And the “increase of tolerance compared to wild-type” value ([6]; Δrob complemented with rob H48fs, 1.5 g/L Vanillin)?
**A.** 36%

**Q.** And the increased growth rate ([6]; Δrob rob H48fs plus marC knock-out, 1.5 g/L Vanillin)?
**A.** 28%

**Q.** And the “increase of growth rate” value ([6]; Δrob, 1.5 g/L Vanillin)?
**A.** 8%

**Q.** And the additional faster growth ([6]; ΔyghB complemented with yghB expression, versus ΔyghB, 1.5 g/L Vanillin)?
**A.** 3%

**Q.** And the “increase of growth rate” value ([6]; ΔyghB, 1.5 g/L Vanillin)?
**A.** 18%

**Q.** Which results are given for Butanol?
**A.** Wild-type growth rate (E. coli MG1655 wild-type [5]; 5 g/L Butanol (FIG. 9B)): 0.25 h⁻¹; experimental EC50 / half-maximal growth repression (E. coli MG1655 wild-type [5]; wild-type E. coli, own experimental set-up): ~5 g/L; tolerance of adapted strains compared to wild-type [4]: increased tolerance; increased growth rate ([6]; double knock out rob and marC with rob H48fs expression, 5 g/L Butanol): 41%; increase of tolerance (growth rate vs wild-type) ([6]; ΔmarC, 5 g/L Butanol): 32%; increase of tolerance (growth rate vs wild-type) ([6]; Δrob with leaky rob H48frameshift expression, 5 g/L Butanol): 34%; increase of tolerance (growth rate vs wild-type) ([6]; Δrob, 5 g/L Butanol): about 25%; increase of relative fitness ([6]; ΔyghB complemented with yghB plasmid, 0 μM IPTG, 5 g/L Butanol): about 11%; effect of yghB knock-out on tolerance ([6]; ΔyghB, 5 g/L Butanol): decreases tolerance; literature value for half-maximal concentration (E. coli MG1655 wild-type [8]): 7.5 g/L
